Marks after values point to notes of the source that are not given here.
Tests used:
[1] = tested on: Blumeria graminis f sp. tritici; experiment: Test D: wheat powdery mildew, preventive spray on wheat seedlings, visual disease rating; format: in vivo
From the text: (§1) General protocol for preparing test suspensions for Tests A-E: the test compounds were first dissolved in acetone in an amount equal to 3% of the final volume and then suspended at the desired concentration (in ppm) in acetone and purified water (50/50 mix by volume) containing 250 ppm of the surfactant Trem® 014 (polyhydric alcohol esters). The resulting test suspensions were then used in Tests A-E. Spraying a 200 ppm test suspension to the point of run-off on the test plants was the equivalent of a rate of 800 g/ha.
The test suspension was sprayed to the point of run-off on wheat seedlings. The following day the seedlings were inoculated with a spore dust of Blumeria graminis f sp. tritici, (also known as Erysiphe graminis f sp. tritici, the causal agent of wheat powdery mildew) and incubated in a growth chamber at 20° C. for 8 days, after which time visual disease ratings were made.
(§2) Results for Tests A-E are given in Table A. In the Table, a rating of 100 indicates 100% disease control and a rating of 0 indicates no disease control (relative to the controls). A dash (-) indicates no test results. All results are for 200 ppm except where followed by an asterisk “*” which indicates a 250 ppm test suspension was used or a double asterisk “**” which indicates a 50 ppm test suspension was used.

[2] = tested on: Septoria nodorum; experiment: Test E: Septoria glume blotch, preventive spray on wheat seedlings, visual disease rating; format: in vivo
From the text: as §1
The test suspension was sprayed to the point of run-off on wheat seedlings. The following day the seedlings were inoculated with a spore suspension of Septoria nodorum (the causal agent of Septoria glume blotch) and incubated in a saturated atmosphere at 20° C. for 48 h, and then moved to a growth chamber at 20° C. for 9 days, after which time visual disease ratings were made.
as §2

[3] = tested on: Botrytis cinerea; experiment: Test C: tomato Botrytis, preventive spray on tomato seedlings, visual disease rating; format: in vivo
From the text: as §1
The test suspension was sprayed to the point of run-off on tomato seedlings. The following day the seedlings were inoculated with a spore suspension of Botrytis cinerea (the causal agent of tomato Botrytis) and incubated in a saturated atmosphere at 20° C. for 48 h, and then moved to a growth chamber at 24° C. for 3 days, after which time visual disease ratings were made.
as §2

[4] = tested on: Septoria tritici; experiment: Test B: wheat leaf blotch, preventive spray on wheat seedlings, visual disease rating; format: in vivo
From the text: as §1
(§3) The test suspension was sprayed to the point of run-off on wheat seedlings. The following day the seedlings were inoculated with a spore suspension of Septoria tritici (the causal agent of wheat leaf blotch) and incubated in a saturated atmosphere at 24° C. for 48 h, and then moved to a growth chamber at 20° C. for 19 days, after which time visual disease ratings were made.
as §2

[5] = tested on: Puccinia recondita f. sp. tritici; experiment: Test A: wheat leaf rust, preventive spray on wheat seedlings, visual disease rating; format: in vivo
From the text: as §1
as §3, with “Puccinia recondita f. sp.” for “Septoria”, “rust)” for “blotch)”, “20°” for “24°”, “24” for “48”, “7” for “19”
as §2

[6] = 200 ppm test suspension, 100 = 100% disease control, 0 = no control

Row | melting point [°C] | Compound | Test D disease control rating ([1]; 200 ppm test suspension) [%] | Test E disease control rating ([2]; 200 ppm test suspension) [%] | Test C disease control rating ([3]; 200 ppm test suspension) [%] | Test B disease control rating ([4]; 200 ppm test suspension) [%] | Test A disease control rating [5, 6] [%] | Test D disease control rating ([1]; 250 ppm test suspension (*)) | Test E disease control rating ([2]; 250 ppm test suspension (*)) | Test C disease control rating ([3]; 250 ppm test suspension (*)) | Test B disease control rating ([4]; 250 ppm test suspension (*)) | Test A disease control rating ([5]; 250 ppm test suspension (*))
1 |  | Cc1nn(C)c(Nc2c(F)cc(Cl)cc2F)c1C1CCCC1 [Compound 52, N-(4-chloro-2,6-difluorophenyl)-4-cyclopenyl-1,3-dimethyl-1H-pyrazol-5-amine] | 98 | 0 | 96 | 99 | 89 |  |  |  |  | 
2 |  | CCCON=C(CC)c1c(C)nn(C)c1Oc1c(F)cccc1F [Compound 45] | 0 | 0 | 0 | 3 | 0 |  |  |  |  | 
3 |  | Cc1nn(C)c(Nc2c(F)cc(Cl)cc2F)c1C1CCCCC1 [Compound 46, N-(4-chloro-2,6-difluorophenyl)-4-cyclohexyl-1,3-dimethyl-1H-pyrazol-5-amine] | 98 | 0 | 95 | 99 | 92 |  |  |  |  | 
4 |  | CCCCCCCCc1c(C)nn(C)c1Nc1ccc(F)cc1Cl [Compound 2] | 0 | 0 | 0 | 0 | 0 |  |  |  |  | 
5 |  | CCC(=NOC)c1c(C)nn(C)c1Oc1c(F)cccc1F [Compound 49] | 0 | 0 | 39 | 16 | 0 |  |  |  |  | 
6 |  | CCC(=O)c1c(C)nn(C)c1Oc1c(F)cccc1F [Compound 7] | 0 | 0 | 0 | 62 | 0 |  |  |  |  | 
7 |  | Cc1nn(C)c(Nc2c(F)cc(N)cc2F)c1C1=CCCCC1 [Compound 5] | 0 | 0 | 0 | 1 | 0 |  |  |  |  | 
8 |  | Cc1nn(C)c(Nc2c(F)cc([N+](=O)[O-])cc2F)c1C1=CCCCC1 [Compound 4] | 0 | 0 | 92 | 93 | 32 |  |  |  |  | 
9 |  | CCC(=NO)c1c(C)nn(C)c1Oc1c(F)cccc1F [Compound 47] |  | 0 | 0 | 81 | 0 | 89* % |  |  |  | 
10 |  | CCCCCCCCc1c(C)nn(C)c1Nc1ccc(F)cc1 [Compound 1] | 63 | 0 | 0 | 0 | 41 |  |  |  |  | 
11 |  | Cc1nn(C)c(Nc2c(F)cc(Cl)cc2F)c1C1=CCCC1 [Compound 43] | 0 | 0 | 0 | 92 | 68 |  |  |  |  | 
12 |  | Cc1nn(C)c(Nc2ccc(F)cc2)c1C1CCC(C)(C)CC1 [Compound 14] |  |  |  |  |  | 27* % | 62* % | 0* % | 33* % | 67* %
13 |  | Cc1nn(C)c(Nc2c(F)cc(Cl)cc2F)c1C1=CCCCC1 [Compound 6, N-(4-chloro-2,6-difluorophenyl)-4-(1-cyclohexen-1-yl)-1,3-dimethyl-1H-pyrazol-5-amine] | 0 | 0 | 98 | 84 | 19 |  |  |  |  | 
14 |  | CCC(=NOC(C)C)c1c(C)nn(C)c1Oc1c(F)cccc1F [Compound 48] | 0 | 0 | 18 | 32 | 0 |  |  |  |  | 
15 |  | CCON=C(CC)c1c(C)nn(C)c1Oc1c(F)cccc1F [Compound 50] | 0 | 0 | 3 | 40 | 0 |  |  |  |  | 
16 |  | Cc1nn(C)c(Nc2ccc(F)cc2F)c1C1CCC(C)CC1 (centres unmarked) [Compound 16] |  |  |  |  |  | 97* % | 19* % | 19* % | 0* % | 53* %
17 |  | Cc1nn(C)c(Nc2ccc(F)cc2Cl)c1C1=CCC(C#N)CC1 (centres unmarked) [Compound 13] |  |  |  |  |  | 13* % | 0* % | 79* % | 97* % | 67* %
18 |  | CC(=NO)c1c(C)nn(C)c1Nc1ccc(F)cc1Cl [Compound 34] |  |  |  |  |  | 64* % | 0* % | 0* % | 76* % | 28* %
19 |  | CCC(O)(CC)c1c(C)nn(C)c1Oc1c(F)cccc1F [Compound 44] | 43 | 0 | 3 | 15 | 0 |  |  |  |  | 
20 |  | CC=C(CC)c1c(C)nn(C)c1Oc1c(F)cccc1F [Compound 51] | 0 | 0 | 15 | 0 | 0 |  |  |  |  | 
21 | 171 to 173 | Cc1nn(C)c(C(O)c2ccc(F)cc2Cl)c1C1CCCCC1 (stereo not drawn) [Compound 11, α-(2-chloro-4-fluorophenyl)-4-cyclohexyl-1,3-dimethyl-1H-pyrazole-5-methanol] |  |  |  |  |  | 93* % |  | 24* % | 100* % | 86* %
22 |  | C=C(C)c1c(C)nn(C)c1Nc1c(F)cc([N+](=O)[O-])cc1F [Compound 36] |  |  |  |  |  | 27* % | 0* % | 0* % | 88* % | 55* %
23 |  | Cc1nn(C)c(Nc2ccc(F)cc2F)c1C1CCC(C)(C)CC1 [Compound 19] |  |  |  |  |  | 96* % |  | 0* % | 1* % | 0* %
24 |  | CON=C(C)c1c(C)nn(C)c1Nc1ccc(F)cc1Cl [Compound 30] |  |  |  |  |  | 0* % |  | 0* % | 14* % | 80* %
25 |  | CCCON=C(C)c1c(C)nn(C)c1Nc1ccc(F)cc1Cl [Compound 27] |  |  |  |  |  | 69* % |  | 0* % | 17* % | 9* %
